# Test results published in US20110281179A1, “NON-AQUEOUS ELECTROLYTIC SOLUTION, AND LITHIUM BATTERY COMPRISING SAME” (UBE INDUSTRIES, LTD., priority 2008, published 2011).
# Assay: pKa (acid dissociation constant)
# Type: physicochemical
# Text: Here, the pKa value is also called an acid dissociation constant, and the pKa can be measured by an ordinary method. For example, the pKa can be determined in accordance with the method described in Experimental Chemistry Seminar 5 “Thermal Measurement and Equilibrium”, p. 460 (edited by the Chemical Society of Japan, published by Maruzen Company, Limited.).
row,pKa,Compound
1,8.4,"Oc1ccc(F)cc1F [2,4-Difluorophenol]"
2,9.9,Oc1ccc(F)cc1 [4-Fluorophenol]

# The remaining lines, values behind:
row,Compound,pKa
1,"Oc1ccc(F)c(F)c1F [2,3,4-Trifluorophenol]",6
2,"Oc1c(F)c(F)cc(F)c1F [2,3,5,6-Tetrafluorophenol]",5.5
3,Oc1c(Cl)c(Cl)c(Cl)c(Cl)c1Cl [Pentachlorophenol],4.7
